Positions count from the first letter of the chain named.
Assays:
endogenous AR [1] = biological target: T1, endogenous AR (Homo sapiens, UniProt P10275, T878A); assay: AR nuclear translocation, immunostaining with anti-AR antibody and DAPI in LNCaP cells; assay type: cell-based; settings: 48 hours without androgens, then 8 hours with compound
T1 construct: translocate endogenous AR into the nucleus in LNCaP cells; endogenous in cells; host or cells: LNCaP
T1 sequence (P10275 1-920 T878A): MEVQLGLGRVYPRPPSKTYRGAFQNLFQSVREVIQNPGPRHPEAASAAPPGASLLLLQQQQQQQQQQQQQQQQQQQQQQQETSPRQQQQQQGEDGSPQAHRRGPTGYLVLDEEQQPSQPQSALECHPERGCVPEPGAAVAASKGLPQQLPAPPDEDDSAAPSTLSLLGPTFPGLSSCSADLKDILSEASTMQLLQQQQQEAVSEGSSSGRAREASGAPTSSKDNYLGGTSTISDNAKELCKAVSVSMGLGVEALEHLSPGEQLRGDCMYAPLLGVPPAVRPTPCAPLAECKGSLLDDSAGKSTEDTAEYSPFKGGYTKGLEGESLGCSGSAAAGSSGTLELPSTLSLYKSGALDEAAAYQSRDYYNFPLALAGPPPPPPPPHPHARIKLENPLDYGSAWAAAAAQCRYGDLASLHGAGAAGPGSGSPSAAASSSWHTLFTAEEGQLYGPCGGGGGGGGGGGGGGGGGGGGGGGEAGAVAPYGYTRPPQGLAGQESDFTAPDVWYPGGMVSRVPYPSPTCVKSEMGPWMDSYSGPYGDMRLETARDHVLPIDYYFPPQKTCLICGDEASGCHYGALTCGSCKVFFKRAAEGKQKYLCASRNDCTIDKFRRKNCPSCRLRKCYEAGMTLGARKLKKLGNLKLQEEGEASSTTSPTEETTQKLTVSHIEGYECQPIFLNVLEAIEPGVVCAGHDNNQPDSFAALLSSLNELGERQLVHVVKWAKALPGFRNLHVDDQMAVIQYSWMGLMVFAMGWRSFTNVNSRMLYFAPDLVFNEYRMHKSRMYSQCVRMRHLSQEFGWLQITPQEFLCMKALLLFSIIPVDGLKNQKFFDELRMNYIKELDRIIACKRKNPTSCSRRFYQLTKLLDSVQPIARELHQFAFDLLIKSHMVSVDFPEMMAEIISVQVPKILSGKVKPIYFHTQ
Procedure: (§1) Cells were immunostained with an anti-AR antibody and 4′,6-diamidino-2-phenylindole (DAPI) to determine the nuclear location of the AR. FIG. 5D: CV-1 cells were transiently transfected in 48-well plates with 100 ng of luciferase reporter plasmid regulated by 3 androgen response elements (3ARE), 25 ng of pSV40 β-gal, or with or without 20 ng of the human AR expression vector. […] Then whole cell lysates were prepared to assess luciferase and β-gal activities. Transfection experiments were repeated three times in triplicate. Relative luciferase units (RLUs) were determined from three independent transfections and are presented as the mean+/−SEM.
(§2) Experiments were performed to assess the biological activity of IVMDHT. […] To determine the activity of IVMDHT in activating AR-mediated transcription, CV1 (FIG. 5D) and LNCaP cells (FIG. 5E) were transfected with an androgen-inducible luciferase reporter vector driven by AREs together either with or without the human AR expression vector.

human AR = biological target: T2, human AR (Homo sapiens, UniProt P10275); assay: Androgen-inducible (3ARE) luciferase reporter in CV-1 cells transfected with human AR expression vector; assay type: cell-based; settings: CV1 cells, 1 nM and 10 nM, 24 hours
T2 construct: expressed in transfected cells; host or cells: CV-1
T2 sequence (P10275 1-920): T1 sequence (P10275 1-920 T878A) with A878T
Procedure: as §1, §2

endogenous AR [2] = biological target: T1, endogenous AR; assay: Androgen-inducible (3ARE) luciferase reporter in LNCaP cells, endogenous AR transcriptional activity; assay type: cell-based; settings: no AR expression vector, 1 nM and 10 nM, 24 hours
Procedure: as §1, §2

AR = biological target: T3, AR (Mus musculus, UniProt P19091); assay: microPET imaging in intact and castrated C57/B6 male mice; assay type: in vivo; settings: 1.2 MBq intraperitoneal, images at 1, 2 and 6 hours
T3 construct: from tissue; host or cells: living C57/B6 male mice, intact or castrated; prostate and other organs
T3 sequence (P19091 1-899): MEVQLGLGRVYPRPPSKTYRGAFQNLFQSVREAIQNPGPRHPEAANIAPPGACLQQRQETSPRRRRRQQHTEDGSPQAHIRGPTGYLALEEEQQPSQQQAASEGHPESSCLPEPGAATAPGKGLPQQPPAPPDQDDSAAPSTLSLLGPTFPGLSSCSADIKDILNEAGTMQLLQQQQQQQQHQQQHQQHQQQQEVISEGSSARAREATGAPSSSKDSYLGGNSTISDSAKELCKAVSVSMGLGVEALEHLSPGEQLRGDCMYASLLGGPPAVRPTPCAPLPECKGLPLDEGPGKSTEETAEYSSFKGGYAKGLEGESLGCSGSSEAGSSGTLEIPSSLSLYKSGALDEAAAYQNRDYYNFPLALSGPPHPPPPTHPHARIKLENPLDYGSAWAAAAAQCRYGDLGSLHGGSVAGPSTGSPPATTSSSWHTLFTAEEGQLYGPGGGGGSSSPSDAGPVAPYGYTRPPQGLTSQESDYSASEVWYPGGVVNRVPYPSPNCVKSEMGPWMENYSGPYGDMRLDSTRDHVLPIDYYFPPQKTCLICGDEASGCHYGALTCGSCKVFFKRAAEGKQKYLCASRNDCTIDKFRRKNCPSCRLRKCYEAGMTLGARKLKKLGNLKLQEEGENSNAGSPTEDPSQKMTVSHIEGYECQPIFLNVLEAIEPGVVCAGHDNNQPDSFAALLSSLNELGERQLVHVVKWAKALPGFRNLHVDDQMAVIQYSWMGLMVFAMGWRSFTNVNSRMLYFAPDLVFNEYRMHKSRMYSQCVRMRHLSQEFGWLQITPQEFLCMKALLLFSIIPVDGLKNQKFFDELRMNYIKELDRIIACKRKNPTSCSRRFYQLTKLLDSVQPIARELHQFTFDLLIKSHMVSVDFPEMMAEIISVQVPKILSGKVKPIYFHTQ
Procedure: FIGS. 6A-6E. The androgen analog ^124IVMDHT was intravenously injected into the tail-vein of intact (FIG. 6A) and castrated mice (FIG. 6B) and imaged at 1 hour (FIG. 6A panel 1, FIG. 6B panel 1), 2 hours (FIG. 6A panel 2, FIG. 6B panel 2) and 6 hours (FIG. 6A panel 3, FIG. 6B panel 3). […] The mice were then analyzed at 1 hour (FIG. 6D panel 1, FIG. 6E panel 1), 2 hour (FIG. 6D panel 2, FIG. 6E panel 2) and 6 hours (FIG. 6D panel 3, FIG. 6E panel 3). Positive images are shown with arrows.
In this example, microPET imaging and biodistribution assays will be performed using three available and biologically relevant animal models to fully examine the specific binding affinity of IVMDHT with the AR in vivo. […] Tissue samples were weighed and counted and the results expressed as % ID/g and total counts per organ. […] The biodistribution results will be analyzed in prostate and other non-AR enrich tissues from intact and castrated mice to determine specific uptake of ^124IVMDHT.
To determine the specific binding affinity of IVMDHT with the AR in vivo, microPET imaging and biodistribution assays were performed. The binding specificity of ^124IVMDHT in 4-month-old castrated and intact C57/B6 male mice (n=4 per group) was evaluated. […]
Using a similar experimental approach, IVNDHT was assessed in C57/B6 male mice. […] The intake rate of ^124IVNDHT was further assessed by intraperitoneal injection. […]

[3] = Serum concentration of androgen analogs after intravenous injection, by LC/MS; assay type: in vivo; settings: mouse, 50 ug, 50 μg intravenous, C57/B6 mice
Procedure: FIG. 8. C57B6 mice were intravenously injected with 50 μg of IVMDHT, IVNDHT, and IVDHT. Blood samples were collected at 1, 2, 4, and 8 hours (n=4) and the serum concentrations of the compounds were analyzed by liquid chromatography mass spectrometry. With reference to 2 hours on FIG. 8, the upper line represents IVMDHT; the middle line represents IVNDHT, and the lower line represents IVDHT.
To assess the stability of different androgen analogs, 50 μg of IVDHT, IVNDHT, and IVMDHT was intravenously injected into C57/B6 mice. Blood samples were collected from the mice at 1, 2, 4, and 8 hours and analyzed by liquid chromatography/mass spectrometry (n=4).

| SMILES | nuclear location of the AR protein (endogenous AR [1]) | AR-mediated luciferase activity (human AR) | AR-mediated luciferase activity (endogenous AR [2]) | microPET signal in the vicinity of the bladder/prostate (AR) | half-life [3] |
| --- | --- | --- | --- | --- | --- |
| C[C@]12CCC(=O)C[C@@H]1C[C@@H](/C=C/I)[C@@H]1[C@@H]2CC[C@@]2(C)[C@H]1CC[C@]2(C)O [IVMDHT, 7α-(E-2′-iodovinyl)-17α-methyl-5α-dihydrotestosterone] | uniform nuclear staining of the AR protein | increase in AR-mediated luciferase activity | increase in AR-mediated luciferase activity | low dosage and intraperitoneal injections extend the specific intake | ~1.5 h |
| C[C@]12CCC(=O)C[C@@H]1C[C@@H](/C=C/I)[C@@H]1[C@@H]2CC[C@]2(C)[C@@H](O)CC[C@@H]12 [IVDHT, 7α-(E-2′-iodovinyl)-5α-dihydrotestosterone] | – | – | – | – | ~1.5 h |
| C[C@]12CC[C@@H]3C4CCC(=O)C[C@@H]4C[C@@H](/C=C/I)[C@H]3[C@@H]1CC[C@@H]2O (stereo partly drawn) [IVNDHT, 7α-(E-2′-iodovinyl)-19-nor-5α-dihydrotestosterone] | – | – | – | – | ~1.5 h |

Reference: patent US11541062B2, “Methods of treating advanced prostate cancer” (priority 2017, dated 2023)
